One experiment has as its system LNCaP cells. The experiment in a line: Cellular uptake experiments with 99mTc-labeled ligands in LNCaP cells (with and without 2-PMPA competitor). The format is cell-based. The protocol: (§1) Phosphate buffer was prepared from 890 mg Na2PO4.2H2O in 9.5 mL water for injection and 0.5 mL 2 m NaOH. After dissolution of the salts, the buffer was sterile filtered, the pH was determined using pH stripes (pH=11.5-12.0). The labeling mixture consisted of 1 μl precursor solution (1 mg/ml in MeCH/H2O 20:50; approx. 1 nmol), 20 μl phosphate buffer, 10 μl […] (TCEP; 28.7 mg/mL in phosphate buffer; 0.1 molar solution) and 4-10 μL pertechnetate in saline (0.9% NaCl; generator cluate) containing an activity of approx. 7.5 MBq. The mixture was filled to 100 μl with saline (0.9% NaCl; 59-65 μL). The pH of the reaction mixture was 8.0-8.5 (tendency towards 8.5). The mixture was heated at 98° C. for 10 minutes. After cooling to room temperature, the mixture was diluted to 1 mL by addition of saline (0.9% NaCl, ligand concentration 1 μm). An aliquot was analyzed by HPLC to determine the radiochemical yield (RCY) (method B, see example 9). Aliquots of the product mixture containing the ^99mTc-labeled ligand were further diluted to a concentration of approx. 100 nM (precursor) in PBS with and without a 10000 fold excess of 2-(Phosphonomethyl)-pentandioic acid, 2-Phosphonomethyl pentanedioic acid (2-PMPA) as competitor.
Cellular uptake experiments were conducted in analogy to previously described procedures (Lindner et al., Doi.: 10.2967/jnumed.118.210443). Briefly, LNCaP cells were seeded in 6-Well plates in RPMI medium containing 20% FBS (two day of incubation prior to the experiment) and grown to a confluency of 70-80%. For the uptake experiment, the medium was removed and the cells were incubated with 1 mL of a 1:99 dilution of the 100 nM product mixture dilutions (with and without competitor) described in Example 3. […] The cellular uptake was determined from the activity in the lysed fraction. The unspecific uptake was determined from the cellular uptake of the cells incubated with the ligand in presence of the competitor. […]

The target in a further experiment is T1, PSMA (Homo sapiens, UniProt Q04609).
T1 construct: endogenous in cells; host or cells: LNCaP cells
The experiment in a line: Competitive binding experiments on LNCaP cells (competitor 2-PMPA), Ki by Cheng-Prusoff. The note with it: 1 h, calculated from IC50 with cheng-prusoff equation, values printed in parentheses. The protocol: as §1
For determination of Ki, competitive binding experiments were conducted. […] The cellular uptake was determined from the activity in the lysed fraction.

By Ki is commonly meant the equilibrium dissociation constant of an inhibitor or competing ligand from its target.

T1 sequence (Q04609 whole entry): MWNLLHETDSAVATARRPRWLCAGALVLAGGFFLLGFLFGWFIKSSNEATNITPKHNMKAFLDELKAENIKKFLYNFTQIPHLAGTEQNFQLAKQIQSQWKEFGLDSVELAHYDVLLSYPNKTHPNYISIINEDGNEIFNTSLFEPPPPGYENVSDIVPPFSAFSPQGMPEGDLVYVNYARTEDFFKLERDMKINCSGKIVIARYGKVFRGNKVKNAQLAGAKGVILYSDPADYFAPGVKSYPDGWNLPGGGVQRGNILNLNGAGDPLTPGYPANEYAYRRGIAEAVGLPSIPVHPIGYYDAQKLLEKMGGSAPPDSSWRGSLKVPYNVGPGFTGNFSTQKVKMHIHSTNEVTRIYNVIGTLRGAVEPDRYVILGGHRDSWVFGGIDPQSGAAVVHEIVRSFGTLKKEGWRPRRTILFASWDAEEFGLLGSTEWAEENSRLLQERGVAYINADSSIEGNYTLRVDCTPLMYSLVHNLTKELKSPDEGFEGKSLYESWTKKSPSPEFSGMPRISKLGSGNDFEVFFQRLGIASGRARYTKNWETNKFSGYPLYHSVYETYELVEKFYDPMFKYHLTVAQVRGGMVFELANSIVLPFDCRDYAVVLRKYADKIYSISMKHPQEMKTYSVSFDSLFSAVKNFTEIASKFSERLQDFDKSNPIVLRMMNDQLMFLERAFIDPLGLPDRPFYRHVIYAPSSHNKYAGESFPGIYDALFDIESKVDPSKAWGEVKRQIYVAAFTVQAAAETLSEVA

Consider “^99mTc-EDDA-HYNIC-iPSMA [[^99mTc]TLX-598]”, for which the Specific uptake in the experiment with LNCaP cells (1 h, unspecific uptake subtracted from cellular uptake) stood at 18.7 ± 0.3 % AD/10^6 cells. The Unspecific uptake in the experiment on LNCaP cells (1 h incubation, in presence of 10000 fold excess 2-PMPA) amounted to 1.64 ± 0.07 % AD/10^6 cells. This substance also gave an Uptake in the experiment with LNCaP cells (1 h incubation, triplicate) of 20.3 ± 0.3 % AD/10^6 cells. Further, the Ki at PSMA is 38 nM.

These data come from patent publication US20240238460A1, “IMPROVED PROSTATE-SPECIFIC MEMBRANE ANTIGEN TARGETING RADIOPHARMACEUTICALS AND USES THEREOF” (TELIX PHARMACEUTICALS (INNOVATIONS) PTY LTD, priority 2021, published 2024).
